Measurements as given in ChEMBL document CHEMBL3588788, “Structure-activity relationship of hybrids of Cinchona alkaloids and bile acids with in vitro antiplasmodial and antitrypanosomal activities” (Eur J Med Chem, 2015).

Experiments:
[1] = Cytotoxicity against human WI38 cells by MTT assay; type: cell-based, WI-38
[2] = tested on: Trypanosoma brucei brucei; assay: Antitrypanosomal activity against Trypanosoma brucei brucei Lister 427 bloodstream forms by microtiter plate based assay; type: functional, organism-based
Plasmodium falciparum [3] = assay: Antiplasmodial activity against Plasmodium falciparum 3D7 assessed as reduction in parasite viability by parasite lactate dehydrogenase assay; type: functional, organism-based
[4] = Cytotoxicity against human WI38 cells assessed as inhibition of cell growth at 100 ug/ml by MTT assay; type: cell-based, WI-38
[5] = Cytotoxicity against human WI38 cells assessed as inhibition of cell growth at 20 ug/ml by MTT assay; type: cell-based, WI-38
[6] = tested on: Trypanosoma brucei brucei; assay: Antitrypanosomal activity against Trypanosoma brucei brucei Lister 427 bloodstream forms assessed as inhibition of parasite growth at 100 ug/ml by microtiter plate based assay; type: functional
[7] = tested on: Trypanosoma brucei brucei; assay: Antitrypanosomal activity against Trypanosoma brucei brucei Lister 427 bloodstream forms assessed as inhibition of parasite growth at 20 ug/ml by microtiter plate based assay; type: functional
Plasmodium falciparum [8] = assay: Antiplasmodial activity against Plasmodium falciparum 3D7 assessed as inhibition of parasite viability at 100 ug/ml by parasite lactate dehydrogenase assay; type: functional
Plasmodium falciparum [9] = assay: Antiplasmodial activity against Plasmodium falciparum 3D7 assessed as inhibition of parasite viability at 20 ug/ml by parasite lactate dehydrogenase assay; type: functional
[10] = tested on: Trypanosoma brucei brucei; assay: Potency index, ratio of IC50 for QN to IC50 for test compound against Trypanosoma brucei brucei Lister 427 bloodstream forms by microtiter plate based assay; type: functional
[11] = Selectivity index, ratio of IC50 against human WI38 cells to IC50 for Plasmodium falciparum 3D7; type: toxicity, cell-based, WI-38; conditions: read-out: Ratio IC50
Plasmodium falciparum [12] = assay: Potency index, ratio of IC50 for QN to IC50 for test compound against Plasmodium falciparum 3D7 by parasite lactate dehydrogenase assay; type: functional
in vitro = conditions: human, WI38 cells
Description: Selectivity index, ratio of IC50 against human WI38 cells to IC50 for Trypanosoma brucei brucei Lister 427 bloodstream forms

[13] = Homo sapiens, WI-38, read-out: IC50

IC50 [2] [µM]	SMILES	IC50 [1, 13] [µM]	IC50 (Plasmodium falciparum [3]) [µM]	inhibition at 100 ug/ml [4] [%]	inhibition at 20 ug/ml [5] [%]	inhibition at 100 µg/mL [6] [%]	inhibition at 20 µg/mL [7] [%]	inhibition at 100 µg/mL (Plasmodium falciparum [8]) [%]	inhibition at 20 µg/mL (Plasmodium falciparum [9]) [%]	Ratio IC50 [10]	selectivity ratio [11]	Ratio IC50 (Plasmodium falciparum [12])	selectivity ratio (in vitro)	IC50 ([1]; wi-38)
0.76	C=C[C@H]1CN2CC[C@H]1C[C@H]2[C@H](O)c1cc(CC[C@@H](C)[C@H]2CC[C@H]3[C@@H]4[C@H](O)[C@H](O)[C@@H]5C[C@H](O)CC[C@]5(C)[C@H]4CC[C@]23C)nc2ccc(OC)cc12	5.55	0.275	–	–	–	–	–	–	27.8	20	2.3	7.3	–
1.47	C=C[C@H]1CN2CC[C@H]1C[C@H]2[C@H](O)c1cc(CC[C@@H](C)[C@H]2CC[C@H]3[C@@H]4CC[C@@H]5C[C@H](OC(C)=O)CC[C@]5(C)[C@H]4C[C@H](OC(C)=O)[C@]23C)nc2ccc(OC)cc12	4.41	0.197	–	–	–	–	–	–	14.4	22	3.2	3	–
–	C[C@@H]1CC[C@H]2[C@@H](C)C(=O)O[C@@H]3O[C@@]4(C)CC[C@@H]1[C@]32OO4 [ARTEMISININ]	–	0.0362	–	–	–	–	–	–	–	–	–	–	Not Active
–	C[C@H](CCC(=O)O)[C@H]1CC[C@H]2[C@@H]3C[C@H](O)[C@@H]4C[C@H](O)CC[C@]4(C)[C@H]3CC[C@]12C [HYODEOXYCHOLIC_ACID]	–	40.9	22	21	94	1	97	67	–	–	–	–	–
–	C[C@H](CCC(=O)O)[C@H]1CC[C@H]2[C@@H]3CC[C@@H]4C[C@H](O)CC[C@]4(C)[C@H]3CC[C@]12C [LITHOCHOLIC ACID]	–	26.9	98	22	100	5	100	85	–	–	–	–	–
–	CC(=O)O[C@@H]1CC[C@@]2(C)[C@@H](C1)C[C@@H](OC(C)=O)[C@@H]1[C@@H]2C[C@H](OC(C)=O)[C@]2(C)[C@@H]([C@H](C)CCC(=O)O)CC[C@@H]12	–	22.5	29	12	100	15	100	68	–	–	–	–	–
–	C=C[C@H]1CN2CC[C@H]1C[C@H]2[C@H](O)c1ccnc2ccccc12 [CINCHONIDINE]	> 68	0.963	–	–	–	–	–	–	–	> 71	–	–	–
–	C[C@H](CCC(=O)O)[C@H]1CC[C@H]2[C@@H]3[C@H](O)C[C@@H]4C[C@H](O)CC[C@]4(C)[C@H]3C[C@H](O)[C@]12C [CHOLIC ACID]	–	133	–	6	24	20	83	56	–	–	–	–	–
–	CC(=O)O[C@@H]1CC[C@@]2(C)[C@H](CC[C@@H]3[C@@H]2C[C@H](OC(C)=O)[C@]2(C)[C@@H]([C@H](C)CCC(=O)O)CC[C@@H]32)C1	–	30.5	98	10	100	36	100	82	–	–	–	–	–
–	C=C[C@H]1CN2CC[C@H]1C[C@H]2[C@H](O)c1ccnc2ccc(OC)cc12 [QUININE]	20.2	0.633	–	–	–	–	–	–	–	–	–	1	–
–	C[C@H](CCC(=O)O)[C@H]1CC[C@H]2[C@@H]3[C@H](O)C[C@@H]4C[C@H](O)CC[C@]4(C)[C@H]3CC[C@]12C [CHENODIOL]	–	18.9	94	27	100	11	98	77	–	–	–	–	–
5.6	CC(=O)O[C@@H]1CC[C@@]2(C)[C@@H](C1)[C@@H](OC(C)=O)[C@@H](OC(C)=O)[C@@H]1[C@@H]2CC[C@]2(C)[C@@H]([C@H](C)CCC(=O)O)CC[C@@H]12	–	8.1	96	9	100	83	97	88	–	–	–	–	–
–	C=C[C@H]1CN2CC[C@H]1C[C@@H]2[C@@H](O)c1ccnc2ccc(OC)cc12 [QUINIDINE]	34.8	0.194	–	–	–	–	–	–	–	–	–	–	–
–	CC[C@@]1(O)C(=O)OCc2c1cc1n(c2=O)Cc2cc3ccccc3nc2-1 [CAMPTOTHECIN]	0.23	–	–	–	–	–	–	–	–	–	–	–	–
–	CC(=O)O[C@@H]1CC[C@@]2(C)[C@H](CC[C@@H]3[C@@H]2CC[C@]2(C)[C@@H]([C@H](C)CCC(=O)O)CC[C@@H]32)C1	–	59.5	98	27	100	15	100	70	–	–	–	–	–
16.3	CC(=O)O[C@@H]1CC[C@]2(C)[C@H]3CC[C@]4(C)[C@@H]([C@H](C)CCC(=O)O)CC[C@H]4[C@@H]3C[C@H](OC(C)=O)[C@@H]2C1	–	32.7	98	20	100	81	97	73	–	–	–	–	–
–	C[C@H](CCC(=O)O)[C@H]1CC[C@H]2[C@@H]3CC[C@@H]4C[C@H](O)CC[C@]4(C)[C@H]3C[C@H](O)[C@]12C [DEOXYCHOLIC ACID]	–	93.6	50	9	100	2	100	59	–	–	–	–	–
–	C[C@H](CCC(=O)O)[C@H]1CC[C@H]2[C@@H]3[C@H](O)[C@H](O)[C@@H]4C[C@H](O)CC[C@]4(C)[C@H]3CC[C@]12C [HYOCHOLIC ACID]	–	109	–	18	64	7	92	54	–	–	–	–	–

SMILES	IC50 [2] [µM]	IC50 [1, 13] [µM]	IC50 (Plasmodium falciparum [3]) [µM]	inhibition at 100 ug/ml [4] [%]	inhibition at 20 ug/ml [5] [%]	inhibition at 100 µg/mL [6] [%]	inhibition at 20 µg/mL [7] [%]	inhibition at 100 µg/mL (Plasmodium falciparum [8]) [%]	inhibition at 20 µg/mL (Plasmodium falciparum [9]) [%]	Ratio IC50 [10]	selectivity ratio [11]	Ratio IC50 (Plasmodium falciparum [12])	selectivity ratio (in vitro)	IC50 ([1]; wi-38)
CC(=O)O[C@@H]1CC[C@@]2(C)[C@@H](C1)C[C@@H](OC(C)=O)[C@@H]1[C@@H]2CC[C@]2(C)[C@@H]([C@H](C)CCC(=O)O)CC[C@@H]12	12.5	16.8	21	98	57	100	99	90	59	–	–	–	–	–
C=C[C@H]1CN2CC[C@H]1C[C@@H]2[C@@H](O)c1ccnc2ccccc12 [CINCHONINE]	> 68	> 68	0.292	–	–	–	–	–	–	–	> 222	–	–	–
